Reference: patent publication US8680089B2, “Fused pyridine derivatives” (Xuanzhu Pharma Co., Ltd., priority 2010, dated 2014)
Where two headings read alike, the source gives them in different places.

Experiments:
Format in all cases: biochemical
[1] = biological target: DPP-9 (Homo sapiens, UniProt Q86TI2); assay: Inhibition to DPP-9 measured by a fluorescence assay (DPPIV-Glo)
Method: (§1) The preparation of the reaction solution DPPIV-Glo® buffer should be thawed in advance. The freeze-dried […] should be taken out of the refrigerator in advance and left to room temperature. The DPPIV-Glo® substrate was dissolved in 110 μl water, and mixed thoroughly by votex as a stock solution (the concentration is 10 mmol). The […] was added into an ampoule containing 50 mL DPPIV-Glo™ buffer. Then, 100 μl solution containing DPPIV-Glo™ substrate was mixed with 50 mL DPPIV-Glo™ buffer containing a […] to afford the reaction solution, which needs to be stored in a refrigerator at −20° C.
3. The inhibition to DPP-9 was measured by a fluorescence assay:
(§2) All of the compounds were 10-fold diluted by DMSO before the experiment, and each compound needs to be diluted to 8 concentrations. Before the experiment, the solution containing DPP-9 enzyme was incubated with the mixture of compounds for 10 min at RT. And then, the reaction solution was added and incubated for 30 min. The enzyme was not added to the negative control group. The fluorescence signal was assayed after 30 min. All of the compounds were assayed twice.

[2] = biological target: DPP-8 (Homo sapiens, UniProt Q6V1X1); assay: Inhibition to DPP-8 measured by a fluorescence assay (DPPIV-Glo); conditions: 111.9 pM DPP-8, pH 7.5, 10 min preincubation at RT, 30 min reaction, 8 concentrations, assayed twice
DPP-8, sequence (Q6V1X1 whole entry, species assumed): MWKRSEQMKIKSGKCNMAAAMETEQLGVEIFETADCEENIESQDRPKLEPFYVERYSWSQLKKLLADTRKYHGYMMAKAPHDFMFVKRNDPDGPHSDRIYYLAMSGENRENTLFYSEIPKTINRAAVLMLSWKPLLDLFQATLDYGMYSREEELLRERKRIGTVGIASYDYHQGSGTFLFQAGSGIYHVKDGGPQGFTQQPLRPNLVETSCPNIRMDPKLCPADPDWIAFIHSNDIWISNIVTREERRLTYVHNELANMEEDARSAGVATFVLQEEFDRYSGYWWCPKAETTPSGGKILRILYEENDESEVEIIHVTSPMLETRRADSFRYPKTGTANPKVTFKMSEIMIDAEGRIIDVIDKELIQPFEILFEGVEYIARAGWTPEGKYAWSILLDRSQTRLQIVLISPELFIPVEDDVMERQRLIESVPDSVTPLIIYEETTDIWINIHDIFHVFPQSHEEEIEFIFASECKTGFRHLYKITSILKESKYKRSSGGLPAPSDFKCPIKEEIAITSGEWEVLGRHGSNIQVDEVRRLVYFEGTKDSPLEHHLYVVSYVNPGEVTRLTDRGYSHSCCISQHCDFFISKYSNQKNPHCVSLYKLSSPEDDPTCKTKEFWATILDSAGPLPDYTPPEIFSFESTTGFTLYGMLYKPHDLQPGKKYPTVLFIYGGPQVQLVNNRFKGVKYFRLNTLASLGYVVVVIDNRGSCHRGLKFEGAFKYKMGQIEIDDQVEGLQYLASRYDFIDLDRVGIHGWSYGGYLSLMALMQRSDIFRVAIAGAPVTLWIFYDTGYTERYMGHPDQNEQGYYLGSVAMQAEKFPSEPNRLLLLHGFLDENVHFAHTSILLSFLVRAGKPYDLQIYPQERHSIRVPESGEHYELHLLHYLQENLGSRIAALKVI
Method: as §1
2. The inhibition to DPP-8 was measured by a fluorescence assay:
as §2, with “DPP-8” for “DPP-9”

[3] = biological target: DPP-IV (Homo sapiens, UniProt P27487); assay: Inhibition to DPP-IV measured by a fluorescence assay (DPPIV-Glo); conditions: 66 pM DPP-4, pH 7.5, 10 min preincubation at RT, 30 min reaction, 8 concentrations, assayed twice
DPP-IV, sequence (P27487 whole entry, species assumed): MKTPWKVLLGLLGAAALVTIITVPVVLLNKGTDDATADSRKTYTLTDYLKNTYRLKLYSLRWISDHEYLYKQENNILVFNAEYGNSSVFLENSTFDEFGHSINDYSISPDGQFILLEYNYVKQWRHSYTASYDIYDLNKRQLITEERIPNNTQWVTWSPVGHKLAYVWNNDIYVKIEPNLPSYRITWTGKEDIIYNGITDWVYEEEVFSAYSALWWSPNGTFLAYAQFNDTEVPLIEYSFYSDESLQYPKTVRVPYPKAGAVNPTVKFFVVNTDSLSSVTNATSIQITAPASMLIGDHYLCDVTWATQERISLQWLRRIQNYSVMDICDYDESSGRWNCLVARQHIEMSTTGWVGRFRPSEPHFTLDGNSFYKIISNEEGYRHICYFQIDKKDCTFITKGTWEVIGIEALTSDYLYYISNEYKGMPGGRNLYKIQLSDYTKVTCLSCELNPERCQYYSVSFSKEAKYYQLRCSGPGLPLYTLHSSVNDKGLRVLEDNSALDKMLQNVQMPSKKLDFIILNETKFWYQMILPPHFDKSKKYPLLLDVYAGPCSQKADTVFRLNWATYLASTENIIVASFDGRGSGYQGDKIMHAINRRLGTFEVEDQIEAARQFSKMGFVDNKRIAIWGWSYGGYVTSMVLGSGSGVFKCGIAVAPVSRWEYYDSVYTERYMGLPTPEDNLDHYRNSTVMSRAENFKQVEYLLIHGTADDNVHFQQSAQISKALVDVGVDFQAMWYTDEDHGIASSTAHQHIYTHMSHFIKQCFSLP
Method: as §1
1. The inhibition to DPP-IV was measured by a fluorescence assay:
as §2, with “DPP-IV” for “DPP-9”

[4] = 26 pM DPP-9, pH 7.5, 10 min preincubation at RT, 30 min reaction, 8 concentrations, assayed twice, read-out: IC50 DPP-9

DPP-9, sequence (Q86TI2 whole entry, species assumed): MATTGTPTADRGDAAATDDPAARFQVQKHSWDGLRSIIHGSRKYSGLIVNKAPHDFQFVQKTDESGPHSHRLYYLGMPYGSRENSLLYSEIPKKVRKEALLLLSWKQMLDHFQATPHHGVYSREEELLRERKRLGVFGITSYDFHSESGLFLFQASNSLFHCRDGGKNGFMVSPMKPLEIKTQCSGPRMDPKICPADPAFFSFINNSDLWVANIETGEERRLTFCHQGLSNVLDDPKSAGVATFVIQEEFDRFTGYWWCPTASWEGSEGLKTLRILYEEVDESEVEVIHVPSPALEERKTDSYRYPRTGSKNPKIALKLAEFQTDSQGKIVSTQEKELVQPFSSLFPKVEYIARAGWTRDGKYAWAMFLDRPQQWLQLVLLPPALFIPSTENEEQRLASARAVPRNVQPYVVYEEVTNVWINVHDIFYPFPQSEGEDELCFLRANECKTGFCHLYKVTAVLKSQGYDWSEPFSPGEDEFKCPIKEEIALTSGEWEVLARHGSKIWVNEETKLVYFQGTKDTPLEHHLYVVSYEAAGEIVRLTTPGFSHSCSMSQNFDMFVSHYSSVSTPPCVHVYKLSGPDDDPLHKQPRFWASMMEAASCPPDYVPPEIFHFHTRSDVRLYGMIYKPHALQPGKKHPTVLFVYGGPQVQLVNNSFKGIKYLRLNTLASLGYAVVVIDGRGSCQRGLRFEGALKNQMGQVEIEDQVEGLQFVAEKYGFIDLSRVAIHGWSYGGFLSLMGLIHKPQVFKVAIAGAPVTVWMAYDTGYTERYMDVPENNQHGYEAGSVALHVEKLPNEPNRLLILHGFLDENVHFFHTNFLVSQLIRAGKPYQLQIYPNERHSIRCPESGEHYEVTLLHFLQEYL

SMILES	IC50 [1]	IC50 [2]	IC50 [1, 4]	IC50 [3]
Cn1c(=O)n(Cc2ccccc2C#N)c2c(N3CCC[C@@H](N)C3)ccnc21 [Compound 1, (R)-2-[[7-(3-aminopiperidin-1-yl)-3-methyl-2-oxo-2,3-dihydro-1H-imidazo[4,5-b]pyridin-1-yl]methyl]benzonitrile]	> 100 µM	> 100 µM		
CC(C)n1c(=O)n(Cc2ccccc2C#N)c2c(N3CCC[C@@H](N)C3)ccnc21 [Compound 2, (R)-2-[[7-(3-aminopiperidin-1-yl)-3-isopropyl-2-oxo-2,3-dihydro-1H-imidazo[4,5-b]pyridin-1-yl]methyl]benzonitrile]	> 100 µM	> 100 µM		
Cn1c(=O)n(Cc2ccccc2F)c2c(N3CCC[C@@H](N)C3)ccnc21 [Compound 3, (R)-1-(2-fluorobenzyl)-7-(3-aminopiperidin-1-yl)-3-methyl-1H-imidazo[4,5-b]pyridin-2(3H)-one]	> 100 µM	> 100 µM		
Cn1c(=O)n(Cc2cc(F)ccc2F)c2c(N3CCC[C@@H](N)C3)ccnc21 [Compound 4, (R)-1-(2,5-difluorobenzyl)-7-(3-aminopiperidin-1-yl)-3-methyl-1H-imidazo[4,5-b]pyridine-2(3H)-one]		> 100 µM	> 100 µM	545 nM
Cn1c(=O)n(Cc2ccccc2Cl)c2c(N3CCC[C@@H](N)C3)ccnc21 [Compound 5, (R)-1-(2-chlorobenzyl)-7-(3-aminopiperidin-1-yl)-3-methyl-1H-imidazo[4,5-b]pyridine-2(3H)-one]	> 100 µM	> 100 µM		
CN[C@@H]1CCCN(c2ccnc3c2n(Cc2ccccc2C#N)c(=O)n3C)C1 [Compound 6, (R)-2-[[3-methyl-7-[3-(methylamino)piperidin-1-yl]-2-oxo-2,3-dihydro-1H-imidazo[4,5-b]pyridin-1-yl]methyl]benzonitrile]	> 100 µM	> 100 µM		
N#Cc1ccccc1Cn1c(=O)oc2nccc(N3CCC[C@@H](N)C3)c21 [Compound 11, (R)-2-[[7-(3-aminopiperidin-1-yl)-2-oxo-oxazolo[5,4-b]pyridin-1(2H)-yl]methyl]benzonitrile]	> 100 µM	> 100 µM		
Cn1c(=O)n(Cc2ccccc2C#N)c2c(N3CC[C@@H](N)C3)ccnc21 [Compound 12, (R)-2-[[7-(3-aminopyrrolidin-1-yl)-3-methyl-2-oxo-2,3-dihydro-1H-imidazo[4,5-b]pyridin-1-yl]methyl]benzonitrile]	> 100 µM	> 100 µM		
Cn1c(=O)n(Cc2ccccc2C#N)c2c(N3CCCCC(N)C3)ccnc21 (centres unmarked) [Compound 15, 2-[[7-(3-aminohomopiperidin-1-yl)-3-methyl-2-oxo-2,3-dihydro-1H-imidazo[4,5-b]pyridin-1-yl]methyl]benzonitrile]	> 100 µM	> 100 µM		
Cc1cc(N2CCC[C@@H](N)C2)c2c(n1)n(C)c(=O)n2Cc1ccccc1C#N [Compound 17, (R)-2-[[7-(3-aminopiperidin-1-yl)-3,5-dimethyl-2-oxo-2,3-dihydro-1H-imidazo[4,5-b]pyridin-1-yl]methyl]benzonitrile]		> 100 µM	> 100 µM	8.9 nM
Cn1c(=O)n(Cc2ccccc2C#N)c2c(N3CCC[C@@H](N)C3)c3ccccc3nc21 [Compound 18, (R)-2-[[9-(3-aminopiperidin-1-yl)-3-methyl-2-oxo-2,3-dihydro-1H-imidazo[4,5-b]quinolin-1-yl]methyl]benzonitrile]	> 100 µM	> 100 µM		
N#Cc1ccccc1Cn1c(=O)[nH]c2nccc(N3CCC[C@@H](N)C3)c21 [Compound 19, (R)-2-[[7-(3-aminopiperidin-1-yl)-2-oxo-2,3-dihydro-1H-imidazo[4,5-b]pyridin-1-yl]methyl]benzonitrile]	> 100 µM	> 100 µM		
Cc1cc(N2CC[C@@H](N)C2)c2c(n1)n(C)c(=O)n2Cc1ccccc1C#N [Compound 21, (R)-2-[[7-(3-aminopyrrolidin-1-yl)-3,5-dimethyl-2-oxo-2,3-dihydro-1H-imidazo[4,5-b]pyridin-1-yl]methyl]benzonitrile]		> 100 µM	> 100 µM	11.2 nM
Cn1c(=O)n(Cc2ccccc2C#N)c2c(N3CCC[C@@H](N)C3)cc(Cl)nc21 [Compound 22]		> 100 µM	> 100 µM	10 nM
CN(C)c1cc(N2CCC[C@@H](N)C2)c2c(n1)n(C)c(=O)n2Cc1ccccc1C#N [Compound 23, (R)-2-[[7-(3-aminopiperidin-1-yl)-5-(dimethylamino)-3-methyl-2-oxo-2,3-dihydro-1H-imidazo[4,5-b]pyridin-1-yl]methyl]benzonitrile]		> 100 µM	> 100 µM	22.9 nM
CCc1cc(N2CCC[C@@H](N)C2)c2c(n1)n(C)c(=O)n2Cc1ccccc1C#N [Compound 25, (R)-2-[[7-(3-aminopiperidin-1-yl)-5-ethyl-3-methyl-2-oxo-2,3-dihydro-1H-imidazo[4,5-b]pyridin-1-yl]methyl]benzonitrile]		> 100 µM	> 100 µM	19.3 nM
CCn1c(=O)n(Cc2ccccc2C#N)c2c(N3CCC[C@@H](N)C3)cc(C)nc21 [Compound 26, (R)-2-[[7-(3-aminopiperidin-1-yl)-3-ethyl-5-methyl-2-oxo-2,3-dihydro-1H-imidazo[4,5-b]pyridin-1-yl]methyl]benzonitrile]		> 100 µM	> 100 µM	56.9 nM
Cn1c(=O)n(Cc2ccccc2C#N)c2c(N3CCC[C@@H](N)C3)cc(CO)nc21 [Compound 29, (R)-2-[[7-(3-aminopiperidin-1-yl)-3-methyl-5-hydroxymethyl-2-oxo-2,3-dihydro-1H-imidazo[4,5-b]pyridin-1-yl]methyl]benzonitrile]		> 100 µM	> 100 µM	13.5 nM
Cn1c(=O)n(Cc2ccccc2C#N)c2c(N3CCC[C@@H](N)C3)cc(C(=O)O)nc21 [Compound 30, (R)-7-(3-aminopiperidin-1-yl)-1-(2-cyanobenzyl)-3-methyl-2-oxo-2,3-dihydro-1H-imidazo[4,5-b]pyridine-5-formylic acid]		> 100 µM	> 100 µM	7.9 nM
Cc1cc(N2CCC[C@@H](NCc3ccccc3C#N)C2)c2c(n1)n(C)c(=O)n2Cc1ccccc1C#N [Compound 31, (R)-7-[3-(2-cyanobenzyl)aminopiperidin-1-yl]-1-(2-cyanobenzyl)-3,5-dimethyl-2-oxo-2,3-dihydro-1H-imidazo[4,5-b]pyridine]		> 100 µM	> 100 µM	422 nM
